Measured values published in PMC6767236, “Selective Cannabinoid 2 Receptor Agonists as Potential Therapeutic Drugs for the Treatment of Endotoxin-Induced Uveitis” (Molecules, 2019).
In brackets after ≈: the same amount, converted by molar mass.

Assays:
[1] = Kinetic lyophilization solubility assay; assay type: physicochemical; details: 0.05 M phosphate buffer, aqueous buffer, thermodynamic from solid; phosphate buffer pH 6.5
Experimental: The X-ray structure of CB2R complexed with the antagonist AM10257 (5zty) was used as a template to dock CB2R ligands. The docking experiments were performed with the software GOLD ([…]) with default settings. The best 10 docking poses for each compound were energy-minimized within the binding pocket using MOE ( molecular operating environment ver. 2014.09, Chemical Computing Group, Montreal, Canada) and examined visually to select the most reasonable docking mode with respect to molecular interactions and internal conformational strain. The final selection was based on checking consiste ncy with the available structure –activity relationship information.
Kinetic Lyophilization Solubility Assay
The solubility of a test compound in phosphate buffer at pH 6.5 from evaporated DMSO stock solution is measured over time, resulting in the kinetic solubility of the compound. Samples were prepared in duplicate from 10 mM DMSO stock solutions. […] The filtrate and its 1 :10 dilution were analyzed by direct UV measurement or by HPLC -UV. […]
Approximately 8.6 mg test compound per milliliter solvent/vehicle was stirred in HPLC vials (9 × 12 × 32 mm, Waters) at 350 rpm for 15 h. […] Addition of solid material was repeated up to 96 h or until residual solid particles could be detected. […] The filtrates were diluted in ethanol and analyzed for content by UPLC. […]

mouse CB2R = mouse CB2R (Mus musculus, UniProt P47936); design: bgal (beta-galactosidase fragment of the PathHunter system, named only in the cell line's name); host or cells: CHO-K1 (CHOK1mCB2_bgal); details: [3H]-CP55940 displacement; * previously published; cited from earlier work
mouse CB2R, sequence (P47936 whole entry, the tested form may be a part): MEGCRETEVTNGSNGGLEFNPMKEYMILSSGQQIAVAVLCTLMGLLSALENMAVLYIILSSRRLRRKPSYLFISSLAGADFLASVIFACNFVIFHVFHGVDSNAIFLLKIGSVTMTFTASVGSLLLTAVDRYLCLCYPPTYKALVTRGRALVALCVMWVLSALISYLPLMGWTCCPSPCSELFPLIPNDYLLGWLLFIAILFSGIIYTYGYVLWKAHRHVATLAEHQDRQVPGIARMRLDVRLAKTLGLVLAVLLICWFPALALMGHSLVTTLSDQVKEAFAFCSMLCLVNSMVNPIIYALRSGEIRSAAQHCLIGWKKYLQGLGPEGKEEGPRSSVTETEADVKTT

neutrophils from WT mice = assay: Transwell neutrophil migration assay towards CXCL2, WT neutrophils; assay type: cell-based, mouse; details: for CXCL2-induced neutrophil migration: WT neutrophils pre-treated 30 min, 10 nM CXCL2, RO6851228 at 0.01–1.0 μM
Experimental: As described previously, mouse neutrophils were isolated from the bone marrow of mice. Mice were euthanized, femur and tibia were dissected and flushed with ice-cold 1× Hanks balanced salt solution (HBSS; supplemented with […], pH7.5, and 0.5 mM EDTA; Invitrogen) through a sterile filter (70 μm). The suspension was centrifuged at 300× g for 12 min at 4 °C. EasySep™ neutrophil enrichment kit ([…] Technologies Inc., Vancouver, BC, Canada) was used to isolate neutrophils according to the manufacturer’s instructions. The isolated neutrophils were then washed once and the pelleted cells were suspended in RPMI (Invitrogen) containing 1% heat-inactivated fetal bovine serum (FBS, Invitrogen) and used immediately for neutrophil migration experiments or processed for adoptive transfer. The murine neutrophil isolation protocol routinely yields cell suspensions that are >95% pure and viable, as determined by cresyl violet and trypan blue exclusion, respectively.
Neutrophil migration assays were performed using a Transwell migration assay. Isolated neutrophils (1 × 10^5 cells/100 μL) from WT or CB2R^-/- mice were incubated with vehicle (0.01% DMSO), or various concentrations of RO8671304 or RO6851228 at 37 °C, 5% CO2 for 30 min. Cells were then loaded into the upper chamber of 3 μm Transwell inserts (Corning Life Sciences, Corning, NY, USA) coated with 5% FBS. Transwells were placed in 24-well plates containing RPMI (1% FBS) alone or 10^−8 M chemokine C–X–C motif ligand 2 (CXCL2)/[…] (Peprotech, Rocky Hill, NJ, USA). Plates were incubated for 1 h at 37 °C, 5% CO2. To determine the number of neutrophils that migrated from the top to the bottom chamber, the filter was removed and neutrophils in the lower chamber gently pipetted to evenly distribute and sink to the bottom of the pate. An Olympus inverted bright-field microscope with an Infinity 3 camera (Lumenera, Ottawa, ON, Canada) was used to photograph 12 random fields (10× magnification) of each well. The number of migrated neutrophils was then determined using ImageJ. […]

SMILES | solubility kinetic at 15 h [1] | Ki (mouse CB2R) | CXCL2-induced neutrophil migration (neutrophils from WT mice) | IC50 (neutrophils from WT mice; Neutrophil, towards 10 nM CXCL2, WT mouse neutrophils, read-out: IC50 for inhibition of neutrophil migration)
CNC(=O)[C@@H](NC(=O)c1cc(OCC2(C)COC2)c(C2CC2)cn1)C(C)(C)C [RO6851228, 5-Cyclopropyl-N-[(2S)-3,3-dimethyl-1-(methylamino)-1-oxobutan-2-yl]-4-[(3-methyloxetan-3-yl)methoxy]pyridine-2-carboxamide] | 174 ± 47 µg/mL (≈ 447 µM) | 1 nM | did not affect CXCL2-induced neutrophil migration | 
Cc1nc([C@](C)(CC2CC2)NC(=O)c2cc(OCC(F)(F)F)c(C3CC3)cn2)no1 [RO6871085, 5-Cyclopropyl-N-[(2S)-1-cyclopropyl-2-(5-methyl-1,2,4-oxadiazol-3-yl)propan-2-yl]-4-(2,2,2-trifluoroethoxy)pyridine-2-carboxamide] | 4.2 ± 0.1 µg/mL (≈ 9.9 µM) | 6 nM |  | 
CC(C)(C)c1nc(N2CC[C@H](O)C2)c2nnn(Cc3nnnn3C3CC3)c2n1 [RO6871304, (3S)-1-{5-tert-butyl-3-[(1-cyclopropyl-1H-tetrazol-5-yl)methyl]-3H-[1,2, 3]triazolo[4,5-d]pyrimidin-7-yl}pyrrolidin-3-ol] |  |  | inhibited neutrophil migration towards CXCL2 in a dose-dependent fashion | 6.6 nM
